The record followed here is US10662203B2, “Pyrido[2,3-b]indole compounds for the treatment and prophylaxis of bacterial infection” (Hoffmann-La Roche Inc., priority 2017, dated 2020).

Usually IC50 stands for the midpoint of a concentration-inhibition curve. Usually CC50 stands for the concentration at which the toxic effect on the cells reaches its halfway point. A word on the solubility (thermodynamic): it is the concentration in solution at equilibrium with solid.

In brackets after ≈: the same amount, converted by molar mass. Where only a bound is given, the exact number is not on record here.

The subject of one series is A. baumannii (ATCC17978). The series is described as follows: 50% growth inhibitory concentration (IC50) determination assay. The format is cell-based. As to conditions: Iso-Sensitest broth, 0.098 = detection limit. The essentials: (§1)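 Broth microdilution in Iso-Sensitest medium, ~5×10^5 CFU/mL inoculum, compound 50–0.097 μM final (two-fold series), 35±2° C; OD600 read every 20 min over 16 h.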

In series [1] the test system is K. pneumoniae (ATCC10031). The description is as above. The class given is cell-based. Conditions: Klebsiella pneumoniae, Iso-Sensitest broth, 0.098 = detection limit. The method, boiled down:
as §1

In another series the test system is S. aureus (ATCC29213). Described as above. The format is cell-based. Conditions: Staphylococcus aureus, Iso-Sensitest broth, 0.098 = detection limit. The method, boiled down:
as §1

In series [2] the test system is multiple species and strains. Kind of series: Minimal inhibitory concentration (MIC) and MIC90 determination, broth microdilution (CLSI M07-A10). Conditions: S9: P. aeruginosa ATCC BAA-2113. How it is done: Minimal Inhibitory Concentration (MIC) and MIC90 Determination:
The MIC of antibacterial compounds against multiple species and strains was determined using the broth microdilution method according to M07-A10 Clinical and Laboratory Standards Institute (CLSI) guidelines (CLSI (2015) Methods for dilution antimicrobial susceptibility tests for bacteria that grow aerobically; Approved Standard, Tenth Edition. CLSI Document M7-A10 (ISBN 1-56238-987-4). Wayne, Pa.: Clinical and Laboratory Standards Institute, 19087, USA.). In short, bacterial strain preparation was performed on D1 and D2. […] 5-10 well-isolated colonies of similar morphology were selected and re-streaked onto fresh agar plates using sterile loops and incubated for 20-24 hr at 35±2° C. Bacterial strains were subcultured two times to ensure fresh inoculums for MIC screening. […] Alternatively, 1-2 colonies were transferred into 500 μL of saline and OD600 was adjusted to ˜0.1 using an OD meter. Bacterial inoculum was diluted by 1:280 for Gram-positive strains and 1:400 for Gram-negative strains into corresponding medium broth (CAMHB, CAMHB+3% lysed horse blood, HTM) (e.g. 35.6 μL of inoculum into 10 mL of CAMHB or 25 μL of inoculum into 10 mL of CAMHB). […] Compound stock concentration=[(highest testing concentration)×100 μL/2 μL] (e.g. if the required highest testing concentration is 64 μg/mL in assay plates, stock concentration=64 μg/mL×100 μL/2 μL=3.2 mg/mL). […] of each well was transferred in a new MTP, which served as the test plate by subsequent inoculation. The bacterial suspension prepared above is dispensed at 98 μL/well within 15 minutes after preparation. Negative controls (lack of bacterial cells) and growth control wells (lack of compound) were included in all plates. MTPs were incubated for 18-24 hours at 35±2° C. in ambient air. The MIC was recorded and CFUs were calculated on Day 4. The assay plate was placed on the top of MIC reader, and the magnification mirror was adjusted to read each wells, recording growth status as raw data. Photo images of each assay plates were recorded using Q Count 530 (Spiral Biotech). The MIC value of each compound, expressed as […], was determined as the lowest concentration required for complete growth inhibition (no visible growth).

Series [3] has as its system HepG2 cells (ATCC HB-8065). The series is described as follows: Cytotoxicity assay (HepG2, CellTiter-Blue cell viability). The class given is cell-based. Conditions: HepG2 cells, 3 days treatment; "*": the detection limit. The essentials:
(§2)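 HepG2 cells (1.2×10^4 per well) exposed to compounds for 3 days; viability then read by CellTiter-Blue fluorescence after 3 h at 37 °C. CC50 from four-parameter logistic fit.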
On the technique in general: The colour change of resazurin is a common sign of viable cells or microbes.

Series [4] can be described thus: Single dose PK study (SDPK) in female CD-1 mouse. The format is in vivo. As to conditions: MOUSE IV, 1.0 mg/kg-Solution; for clearance: female, CD-1, plasma, read-out: CL total. The protocol: Single Dose PK Study (SDPK) in Female CD-1 Mouse: The single dose PK in female CD-1 mouse was performed to assess compound's pharmacokinetic properties. One group of animals were dosed via bolus intravenous (IV) of the respective compound. Blood samples (approximately 30 μL) were collected via saphenous vein at 5 mins, 15 min, 30 min, 1 hr, 2 hr, 4 hr and 7 hr. For last time point (24 hr), samples were collected via cardiac puncture while the mouse was under anesthesia. Blood samples were placed into tubes containing EDTA-K2 anticoagulant (2 μL of 0.5M per tube) and centrifuged at 3000 rpm for 10 minutes at 4° C. within half an hour to separate plasma from the samples. Following centrifugation, plasma samples were stored in polypropylene tubes, quick frozen over dry ice and kept at −70±10° C. until LC/MS/MS analysis. The pharmacokinetic parameters were calculated using non-compartmental module of WinNonlin® Professional 6.4.

A short description of series [5]: Cytotoxicity assay (HepG2, CellTiter-Blue cell viability). The class given is cell-based. Conditions: human; HepG2 cells, 3 days treatment; "*": the detection limit; read-out: CC50. The essentials:
as §2

The nature of series [6]: Lyophilisation solubility assay (LYSA). The class given is physicochemical. Conditions: phosphate buffer, pH 6.5, aqueous buffer, thermodynamic from solid, 0.05 M phosphate buffer, HPLC-UV. The method, boiled down:
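Duplicate samples made from 10 mM DMSO stock. DMSO evaporated and the residue taken up in 0.05 M phosphate buffer, pH 6.5, stirred 1 h and shaken 2 h, then left overnight. Filtrate and its 1/10 dilution quantified by HPLC-UV.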

For `CNc1cc(F)c(F)c2c1[nH]c1ncc(-c3cnc4c(c3)c(=O)c(C(=O)O)cn4C3CCNC3)c(N(C)C)c12` (stereo not drawn) [Example 1.02], the figures for the IC50 (in the series with A. baumannii (ATCC17978) (A. baumannii ATCC17978); in series [1]; in the series on S. aureus (ATCC29213)) were 0.693 µM, under 0.098 µM and under 0.098 µM, respectively. For the same compound, the “MIC S9” value in series [2] came out at 3.335. Further, the CC50 in series [3] is over 100 µM. The AUC total in series [4] came to 0.291 µg·h/mL. In addition, the clearance in series [4] was determined as 3.53 L/h/kg.

As to `CNc1cc(F)cc2c1[nH]c1ncc(-c3cnc4c(c3)c(=O)c(C(=O)O)cn4C)c(N3CC[C@H]4CN(C)C[C@H]43)c12` [Example 3.04A], the concentration for half-maximal inhibition (IC50) is 0.035 µM in the series with A. baumannii (ATCC17978) (Acinetobacter baumannii, ATCC17978, A. baumannii ATCC17978); under 0.098 µM in series [1]; under 0.098 µM in the series on S. aureus (ATCC29213). The “MIC S9” value in series [2] is on record as 6.77. In series [5], the CC50 at 3 days came out at 49.5 µM. The compound also yielded an AUC total in series [4] of 0.2416 µg·h/mL. In addition, in series [4], the clearance was 4.14 L/h/kg. In series [6], this compound gave a thermodynamic solubility of 0.485 mg/mL (≈ 896 µM).
